The test system of assay [1] is LS180 cells. Nature of the assay: Confirmation of cell death (apoptosis) by fragmentation of DNA. It counts as cell-based, human. The following applies: LS180, 50 nM, FIG. 10B. As for the experimental part:
Regarding the treatment of cells, the LS180 cells were cultured at a cell density of 1.0×10^5 cells/30 mm dish in a culture media of MEM (gibco)+10% FBS (gibco)+100 units/ml Penicillin+100 μg/ml Streptmycin (gibco). Thereafter, the cultured cells were treated with 50 nM KR12 or KR13 (dissolved in 0.125% DMSO) for 72 hours, and also, as a long-term experiment, the cells were treated with KR 12 or KR13 for […]. Thereafter, the cells of different groups were treated with a control MEM medium containing 10% FBS and 0.125% DMSO for 11 days. At the same time, as a control group, the LS180 cells were treated with 10% FBS and 0.125% DMSO for 14 days. Thereafter, the cells of the different groups were treated with trypsin, and were then recovered. The recovered cells were stirred in 50 μl of a PBS solution, and 3 μl of 1.5% Triton X (in water) and 3 μl of an RNase (1 mg/ml in water) were then added to the reaction solution. The mixed solution was treated at 37° C. for 30 minutes. Subsequently, 3 μl of proteinase K (1 mg/ml) was added to the reaction solution, and the obtained mixture was then treated at 37° C. for 30 minutes. Subsequently, 12 μl of 6× loading buffer was further added to the reaction solution, and the obtained mixture was treated at 65° C. for 10 minutes. Immediately after the treatment, 20 μl of the reaction solution was electrophoresed on 2% agarose gel in TBE at 100 V, and the gel was then stained with ethidium.

Assay [2] concerns γH2AX, p53, PARP in LS180 cells. The assay is described as follows: Western analysis of markers of DNA damage and cell death (apoptosis). It counts as cell-based, human. To be noted: LS180, 50 nM, 14 days, FIG. 10C. As to the method: LS180 cells, which had been subjected to a long-term treatment experiment and had been treated with 50 nM KR12 or KR13 (dissolved in 0.125% DMSO) for 14 days, were dissolved in a 1×SDS-sample buffer. The obtained solution was treated at 100° C. for 5 minutes. The protein amount was estimated using Bradford reagent (Bio-Rad, CA), and was then electrophoresed by 10% SDS-PAGE. After that, the protein was transferred onto polyvinylidene difluoride membranes (Millipore, MA), and using 5% dry milk in Tris-buffered saline (TBS) plus 0.1% Tween 20 as a blocking agent, anti-γH2AX (2F3, BioLegend, CA), anti-p53 (DO-1, Santa Cruz Biotechnology, CA), anti-PARP (Cell Signaling Technologies, MA), or anti-actin antibody (20-33, Sigma, MO) was added to lanes, and the protein was further treated with HRP-conjugated anti-mouse IgG or anti-rabbit IgG (Cell Signaling Technologies, MA). Before the treatment with a secondary antibody, the primary antibody was washed, as appropriate. Thereafter, the protein was washed with TBS plus 0.1% Tween 20, and it was then identified by […] chemiluminescence (ECL) (Amersham Biosciences, NJ).

The subject of assay [3] is LS180 cells. Nature of the assay: Cytotoxicity test, WST-8 (cell counting kit-8), 48 hours. It counts as cell-based, human. To be noted: Homo sapiens. As to the method:
Using LS180 colon cell line, the cells were seeded in each well of a 96-well microplate, resulting in a cell density of 3000 to 5000 cells/well, and they were then cultured overnight. On the following day, KR12 recognizing a codon 12 mutation, WT recognizing wild-type KRAS, and C12-Dp having the same structure as that of KR12, to which an alkylating agent had not been added, were each added to the cultured cells in concentrations of 1 nM, 10 nM, 30 nM, 100 nM, 300 nM, and 1 μM, and were then treated for 48 hours. Thereafter, a WST-8 reagent was added to each well, using cell counting kit-8 (DOJINDO), and the obtained mixture was then reacted for 2 hours. After that, the number of cells was counted at a wavelength of 450 nm according to a colorimetric analysis method using a microplate reader. The method of counting the number of cells comprises: 1) obtaining the mean value of the medium alone, 2) subtracting the mean value of the medium from each well, 3) obtaining the mean value of DMSO, 4) dividing the medium-subtracted value by the mean value of DMSO and then multiplying by 100, 5) obtaining the mean value of each treatment group and a standard deviation, and then preparing a graph. The calculation formula of IC50 is the following: IC50=10 (LOG (A/B)×(50−C)/(D−C)+LOG (B)), wherein A: a higher concentration of two concentrations sandwiching 50%, B: a lower concentration of two concentrations sandwiching 50%, C: inhibitory percentage at B, and D: inhibitory percentage at A.
(§1) Using colon cancer and pancreatic cancer cell lines, the cells were seeded in each well of a 96-well microplate, resulting in a cell density of 3000 to 5000 cells/well, and they were then cultured overnight. On the following day, the cells of each type were treated with KR12 recognizing a codon 12 mutation in concentrations of 1 nM, 10 nM, 30 nM, 100 nM, 300 nM, and 1 μM for 48 hours. Thereafter, a WST-8 reagent was added to each well, using cell counting kit-8, and the obtained mixture was then reacted for 2 hours. After that, the number of cells was counted at a wavelength of 450 nm according to a colorimetric analysis method using a microplate reader. The method of counting the number of cells comprises: 1) obtaining the mean value of the medium alone, 2) subtracting the mean value of the medium from each well, 3) obtaining the mean value of DMSO, 4) dividing the medium-subtracted value by the mean value of DMSO and then multiplying by 100, 5) obtaining the mean value of each treatment group and a standard deviation, and then preparing a graph. […]
On the technique in general: Tetrazolium dyes change colour on reduction, which living cells bring about.

In assay [4] the test system is colon cancer and pancreatic cancer cell lines. The assay is described as follows: Cytotoxicity test on various cancer cells, summary by KRAS codon 12 status. It counts as cell-based. To be noted: Homo sapiens. As to the method: as §1, with “graph. The calculation formula of IC50 is the following: IC50=10 (LOG (A/B)×(50−C)/(D−C)+LOG (B)), wherein A: a higher concentration of two concentrations sandwiching 50%, B: a lower concentration of two concentrations sandwiching 50%, C: inhibitory percentage at B, and D: inhibitory percentage at A.” for “graph.”

The term IC50 denotes the concentration needed to halve the response being measured.

The structures appear in SMILES notation. Like-named read-outs stand apart in the source and are kept apart here.

As for `CC(=O)Nc1cn(C)c(C(=O)Nc2cn(C)c(C(=O)Nc3cc(C(=O)Nc4cn(C)c(C(=O)NCCC(=O)Nc5cc(C(=O)Nc6cn(C)c(C(=O)NCCCC(=O)Nc7cc(C(=O)Nc8cn(C)c(C(=O)Nc9cc(C(=O)NCCC(=O)Nc%10cc(C(=O)Nc%11ccc%12[nH]c(C(=O)N%13CC(CCl)c%14c%13cc(O)c%13ccccc%14%13)cc%12c%11)n(C)c%10)n(C)c9)n8)n(C)c7)n6)n(C)c5)n4)n(C)c3)n2)n1` (stereo not drawn) [KR13], the DNA fragmentation result with LS180 cells [1] (72-hour-treated groups) and with LS180 cells [1] (long-term treatment) was “DNA fragmentation was not observed” throughout. Also, the “induction of DNA damage and cell death” value in assay [2] is “significant induction of DNA damage and cell death was not observed”.

For `CC(=O)Nc1cn(C)c(C(=O)Nc2cc(C(=O)NCCC(=O)Nc3cn(C)c(C(=O)Nc4cn(C)c(C(=O)Nc5cc(C(=O)Nc6cn(C)c(C(=O)NCCCC(=O)Nc7cc(C(=O)Nc8cn(C)c(C(=O)NCCC(=O)Nc9cc(C(=O)Nc%10cc(C(=O)Nc%11ccc%12[nH]c(C(=O)N%13CC(CCl)c%14c%13cc(O)c%13ccccc%14%13)cc%12c%11)n(C)c%10)n(C)c9)n8)n(C)c7)n6)n(C)c5)n4)n3)n(C)c2)n1` (stereo not drawn) [KR12], the IC50 was 42 nM in the assay with LS180 cells [3] (LS180, KRAS G12D Hetero, Table 1, read-out: KR12 IC50); 53 nM with LS180 cells [3] (LS180 cells, WST-8, FIG. 8, read-out: IC50); at least 100 nM in assay [4] (SW1463, DLD-1, HT-29 and Caco-2, cell lines which do not have a codon 12 mutation recognized by KR12); at most 100 nM in assay [4] (cell lines having a codon 12 mutation, which is recognized by KR12). The values for the DNA fragmentation result in the assay with LS180 cells [1] (72-hour-treated groups) and with LS180 cells [1] (long-term treatment) were “DNA fragmentation was not observed” and “DNA fragmentation induced by cell death was observed”, respectively. The “DNA damage marker γH2AX” value in assay [2] is “induced”. Besides, the “cleavage of the PARP protein” value in assay [2] is reported as “the cleavage of the PARP protein was observed”. Also, the “induction of p53” value in assay [2] is “induction of p53 was also observed”.

The values above are taken from patent publication US11185593B2, “Alkylating agent for alkylating target with driver oncogene mutation” (Chiba Prefecture, priority 2013, dated 2021).
